This is an account of results in PubChem BioAssay (NCI).

What all share (experiment): NCI tumour cell line growth inhibition, 48 h
Assay [1] deals with 786-0 renal.
In assay [2] the test system is HL-60(TB) leukemia.
In assay [3] the test system is NCI-H23 lung.
In assay [4] the test system is TK-10 renal.
In assay [5] the test system is UO-31 renal.
For assay [6], the system named is SN12C renal.
Assay [7] has as its system UACC-62 melanoma.
Assay [8] deals with BT-549 breast.
For assay [9], the system named is MDA-MB-435.
The test system of assay [10] is PC-3 prostate.

Each structure is given as a SMILES string. Values joined by “and” are separate entries in the source; they are usually repeats but may differ in a detail not shown here. Identical values can stand only once.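 Method: 48-hour compound exposure of cells in 96-well plates, five concentrations, linear interpolation of endpoints. At the GI50, growth is halved. Definition used: TGI = concentration required for complete inhibition of growth.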

Regarding `O=[N+]([O-])c1cccc(C2=NN(c3ccccc3)C3c4cc(Br)ccc4OCC23)c1` (configuration not stated), the TGI in [1], in assay [2], in [3], in [4] and in assay [5] was over 100 µM each time.
`CCCCCCCC(=O)OCC(COC(=O)C(C)(C)C)OC(=O)Cc1ccccc1` (configuration not stated): the TGI in assay [1], in [2], in assay [3], in assay [6], in assay [4] and in assay [7] was over 100 µM in each case. Further, the TGI in assay [5] is over 100 µM.
In the case of `CC(C)Oc1cccc(N2C(n3ccnc3)=Nc3ccncc3S2(=O)=O)c1`, the TGI in assay [1] came to 22.1 µM; in assay [8] it was 29 µM; in assay [9], 32.7 µM; in [3] it was 24.9 µM; in assay [10] it was 22.7 µM; in assay [6] it was 29.2 µM. The TGI in assay [4] was determined as 24.5 µM; in [7], 29.2 µM; in [5], 38.3 µM.
As to `C[C@]12CCC3[C@@H](CCC45OC4C(=O)CC[C@]35C)C1Cc1cnn(-c3ccc(F)cc3)c1N2` (some centres not stated), the TGI in [1] is 35.2 µM; in assay [2], 41.9 µM; in [3] it was 54.4 µM; in assay [6], 48.4 µM; in [4], over 100 µM; in assay [7], 68.9 µM. In [5], this compound showed a TGI of over 100 µM.
`CCCCCCCCCCCCCCCCCCOc1ccccc1CC(=O)NCC[N+]1(C)CCOCC1`: the GI50 was 3.57 µM in assay [8]; 7.85 µM in [9]; 3.03 µM in [3]; 2.26 µM in [6]; 1.9 µM in assay [4]; 4.31 µM in assay [7]. Moreover, the GI50 in assay [5] was 5.83 µM. Besides, the TGI in [8] stood at 74 µM; in assay [9], 32.9 µM; in assay [3], 14.2 µM; in assay [6] it was 6.21 µM; in assay [4], 5.9 µM; in assay [7], 30.7 µM. In assay [5], this compound displayed a TGI of 37.2 µM.
Consider `Cc1cc([N+](=O)[O-])c(C)c2c1[nH]c1ccc(Cl)cc12`, for which the TGI in assay [1], in [2], in assay [3], in assay [6], in assay [4] and in assay [5] was over 100 µM each time.
As for `c1ccc(-c2c(-c3ccccc3)[n+](Cc3ccc4ccccc4c3)c(-c3ccc(-c4nc5ccccc5s4)cc3)n2Cc2ccc3ccccc3c2)cc1`, the GI50 in assay [2] is 0.149 µM; in [9], 0.209 µM; in assay [3], 0.0933 µM; in assay [10], 0.111 µM; in assay [6], 0.218 µM; in assay [7] it was 0.236 µM. In addition, the GI50 in assay [5] is 0.28 µM. In addition, the TGI in assay [2] was 0.471 µM; in [9] it was 0.557 µM; in assay [3] it was 0.759 µM; in [10], 0.528 µM; in assay [6] it was 1.04 µM; in [7], 1.25 µM. The compound also gave a TGI in assay [5] of 0.872 µM.
As for `O=C(/C=C/c1ccc(O)c(O)c1)OCCc1ccc2ccccc2c1`, the TGI in assay [1] amounted to 20.9 µM; in [8], 15.7 µM; in assay [9], 6.63 µM; in assay [3] it was 14.7 µM; in assay [10], 20.5 µM; in assay [6] it was 17.8 µM. For the same compound, the TGI worked out at 20.4 µM in assay [4], 13.9 µM in assay [7] and 13.1 µM in assay [5].
Regarding `CCc1c(O)cc(=O)oc1-c1ccc(OC)c(OC)c1`, the TGI in [1], in assay [8], in [9], in assay [3], in assay [10] and in [6] was over 100 µM each time. For the same compound, the TGI in assay [4], in assay [7] and in assay [5] was over 100 µM throughout.
Consider `Cc1c2ccnc(C(N)=O)c2c(C)c2c1[nH]c1ccccc12`, for which the TGI in assay [1] was 23.3 µM; in assay [2], 38.3 µM and > 100 µM; in [3] it was 24.4 µM and 18.9 µM; in assay [6], 27.9 µM and 31.6 µM; in assay [4], 22.5 µM; in assay [7] it was 15.8 µM and 20.4 µM. The TGI in assay [5] is 25.2 µM and 21.7 µM. The GI50 in assay [2] was 4.36 µM; in assay [3], 3.41 µM; in assay [6], 5.44 µM; in [5] it was 5.6 µM.
Consider `CCCCI(O)OS(=O)(=O)c1ccc(C)cc1`, for which the TGI in [1], in assay [8], in assay [9], in [3], in [10] and in [6] was over 100 µM each time. Also, the TGI in assay [4] is over 100 µM; in assay [7] it was over 100 µM; in assay [5], 55.4 µM.
Regarding `CC1=NN(C(=O)Cc2ccccc2)C(=O)/C1=C\c1ccc(O)cc1`, the TGI in assay [1], in [2], in assay [3], in [6], in assay [4] and in [7] was over 100 µM each time. Also, the TGI in assay [5] is over 100 µM.
Consider `O=[N+]([O-])c1ccc(C[P+]2(c3ccccc3)CCCCC2)cc1`, for which the TGI in assay [1], in assay [2], in [3], in assay [6], in assay [4] and in [7] was over 100 µM in each case. Moreover, in assay [5], the TGI is over 100 µM.
For the compound `COC(=O)[C@]1(C)CCC[C@@]2(C)C1CC[C@]13C=C(C(C)C)[C@H](CC21)CC3(Cl)C#N` (some centres not stated), the TGI in assay [1] is over 100 µM; in assay [8], 86 µM; in [9], over 100 µM; in assay [3], over 100 µM; in [10] it was over 100 µM; in assay [6] it was over 100 µM. Also, the TGI in assay [4], in [7] and in assay [5] was over 100 µM each time.
Consider `COc1ccc(N=Nc2c(-c3c(OC)cc4occc4c3OC)[nH]c(=O)c(C#N)c2C)cc1`, for which the TGI in assay [1], in [2], in assay [9], in assay [3], in [10] and in assay [6] was over 100 µM each time. The TGI in assay [4], in assay [7] and in assay [5] was over 100 µM each time.
Take `S=C(Cc1ccc2c(c1)Sc1ccccc1O2)N1CCOCC1`: the TGI in [1], in assay [2], in [9], in assay [3], in assay [10] and in [6] was over 100 µM in each case. Also, the TGI in assay [4], in assay [7] and in assay [5] was over 100 µM each time.
On to `CCOC(=O)/C=C/c1nc(C#N)c(N)o1`, for which the TGI in [1], in [2], in [9], in assay [10], in assay [6] and in assay [4] was over 100 µM throughout. For the same compound, the TGI in [7] and in assay [5] was over 100 µM in each case.
As to `CN(/N=C1\C(=O)Nc2ccccc21)c1ccccc1`, the TGI in assay [2], in assay [9], in assay [3], in [10], in [4] and in [7] was over 100 µM each time. The TGI in assay [5] was over 100 µM.
Regarding `COCOc1ccc(C(=O)Oc2cccc3c2OC(C)(C)O3)c(OCOC)c1`, the TGI in assay [1] is over 100 µM; in assay [2] it was 19 µM; in assay [9] it was over 100 µM; in assay [3] it was 26.3 µM; in [6], over 100 µM; in [4] it was over 100 µM. The TGI in assay [7] was 95.7 µM; in assay [5] it was over 100 µM.
In the case of `CSCC[C@@H](NC(=O)[C@H](CC(C)C)NC(=O)C(Cc1cnc[nH]1)NC(=O)CNC(=O)[C@@H](NC(=O)[C@H](C)NC(=O)[C@H](Cc1c[nH]c2ccccc12)NC(=O)[C@H](CCC(N)=O)NC(=O)[C@@H](N)CC(N)=O)C(C)C)C(N)=O` (some centres not stated), the TGI in [2], in assay [3], in [6], in assay [7] and in assay [5] was over 100 µM throughout.
As to `O=C(/C=C/c1ccc(Cl)cc1)Oc1ccc(C=C2CCC/C(=C\c3ccc(OC(=O)/C=C/c4ccc(Cl)cc4)cc3)C2=O)cc1`, the TGI in [1], in assay [8], in [9], in [3], in assay [10] and in [6] was over 100 µM in each case. Further, the TGI in assay [4], in [7] and in assay [5] was over 100 µM each time.
Consider `CN(C)C(=O)C(F)(F)C(c1ccc(F)cc1)C1C(=O)N(C)C(=O)N(C)C1=O` (configuration not stated), for which the TGI in assay [1], in [8], in [9], in assay [3], in [10] and in [4] was over 100 µM in each case. The TGI in assay [7] and in assay [5] was over 100 µM in each case.
For `NCCN1CCCCCc2ccccc21`, the TGI in assay [1], in assay [2], in assay [9], in assay [3], in [10] and in assay [6] was over 10 µM throughout. Besides, the TGI in assay [4], in assay [7] and in assay [5] was over 10 µM each time.
Turning to `COC(=O)/C=C(\C)CC/C=C(\C)CCC1OC1(C)C` (configuration not stated), the TGI worked out at 23.6 µM in [1]; 21.8 µM in assay [8]; 6.6 µM in assay [2]; 24.2 µM in assay [3]; 17.4 µM in assay [10]; 20.8 µM in assay [6]. Further, the TGI is 22.7 µM in assay [4], 19.8 µM in assay [7] and 20.8 µM in assay [5].
With `COc1cc2nc(-c3ccc(Cl)cc3)cc(OCCCN3CCOCC3)c2cc1OC`, the GI50 was 2.59 µM in assay [8], 2.63 µM in assay [10], 1.3 µM in assay [6] and 2.26 µM in assay [7]. Moreover, the TGI in assay [8] was over 100 µM; in assay [10], over 100 µM; in [6], over 100 µM; in assay [7] it was 6.35 µM.
Take `COc1ccc(CNc2cnc3ccc(N)cc3n2)cc1`: the TGI in assay [1], in assay [2], in assay [3], in assay [6], in assay [4] and in assay [5] was over 100 µM each time.
`CN(C)c1nc(Oc2nc(N(C)C)nc(N(C)C)n2)nc(N(C)C)n1`: the TGI in assay [1], in assay [2], in assay [3], in assay [6], in [4] and in assay [7] was over 100 µM in each case. In assay [5], the TGI was over 100 µM.
On to `Cc1nc(N)c(N2CCN(C#N)CC2)c(=O)[nH]1`, for which the TGI in assay [1], in assay [8], in [9], in [3], in assay [10] and in [6] was over 100 µM each time. For the same compound, the TGI in [4] and in assay [5] was over 100 µM throughout.
With `CN(C)CCNC(=O)c1cccc2c1Nc1ccccc1S2`, the TGI in assay [2] was 19.2 µM; in [3] it was 28.5 µM; in assay [6], 26.1 µM; in [7] it was 28.4 µM; in assay [5], 21.8 µM.
As to `COc1cc(C)c(CC/C(C)=C/Cc2cc(O)ccc2O)c(C)c1C`, the TGI in assay [1], in assay [2], in assay [3], in assay [6], in assay [4] and in assay [5] was over 25 µM throughout.
For `N#CNC(N)=NCc1ccccc1`, the TGI in assay [1], in assay [2], in [3], in [6], in assay [4] and in assay [5] was over 100 µM each time.
Consider `Cc1c(N2CCOCC2)nc2ccc(Cl)cc2c1-c1ccccc1`, for which the TGI in [1], in assay [2], in assay [3], in [6], in [4] and in assay [7] was over 100 µM throughout. The TGI in assay [5] was over 100 µM.
